Test results: US20260070899A1, “N-(2-(4-CYANOTHIAZOLIDIN-3-YL)-2-OXOETHYL)-QUINOLINE-4-CARBOXAMIDES” (AstraZeneca AB, priority 2022, published 2026)
Converted amounts (≈) assume the structure as drawn.

How the values were obtained:
[1] = Caco-2 bidirectional (ABBA) permeability; format: in vitro ADME; conditions: human
Method: Caco-2 cell permeability was measured as described in Mol Pharm 2017, 14, 1601.

[2] = Metabolic stability in human liver microsomes (HLM); format: in vitro ADME; conditions: n = 1 or average (n = 2-3)
Method: Metabolic stability in HLM was measured as described in J Comput Aided Mol Des 2015, 29, 795.

[3] = biological target: T1, Prolyl endopeptidase, Prolyl Oligopeptidase (hPREP) (Homo sapiens, UniProt P48147); test: biochemical
T1 sequence (P48147 1-710): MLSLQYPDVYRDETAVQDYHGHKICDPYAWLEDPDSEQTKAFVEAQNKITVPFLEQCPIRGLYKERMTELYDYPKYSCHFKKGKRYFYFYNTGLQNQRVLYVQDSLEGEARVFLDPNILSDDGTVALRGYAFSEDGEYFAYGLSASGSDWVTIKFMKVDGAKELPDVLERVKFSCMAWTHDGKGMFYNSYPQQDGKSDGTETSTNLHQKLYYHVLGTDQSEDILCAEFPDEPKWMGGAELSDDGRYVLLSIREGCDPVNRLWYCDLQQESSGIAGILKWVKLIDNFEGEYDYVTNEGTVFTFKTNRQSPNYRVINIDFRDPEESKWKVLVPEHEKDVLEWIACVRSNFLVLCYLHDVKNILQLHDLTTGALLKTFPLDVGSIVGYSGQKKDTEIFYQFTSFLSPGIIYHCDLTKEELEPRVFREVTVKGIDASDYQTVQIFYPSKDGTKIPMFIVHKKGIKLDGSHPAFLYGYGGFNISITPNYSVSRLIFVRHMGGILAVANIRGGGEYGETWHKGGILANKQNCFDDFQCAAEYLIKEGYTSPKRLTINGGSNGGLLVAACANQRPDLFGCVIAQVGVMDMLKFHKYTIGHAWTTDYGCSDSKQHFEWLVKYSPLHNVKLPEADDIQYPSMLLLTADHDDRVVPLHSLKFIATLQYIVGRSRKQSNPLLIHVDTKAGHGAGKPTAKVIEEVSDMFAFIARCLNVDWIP
Method: Compounds were tested in a biochemical inhibition assay using Prolyl endopeptidase, Prolyl Oligopeptidase (hPREP) enzyme at 0.6 nM FAC (R&D Systems, 4308-SE) and the substrate Z-Gly-Pro-amino-methylcoumarin (Bachem, I-1145) at 50 μM FAC. 384 Low volume black plates (Greiner #784076) were used. […] Plates were incubated for 15 min at rt in dark. 4 μL, 100 μM substrate solution (25 mM Tris HCl, 250 mM NaCl, 0.01% Triton X-100, 5 mM Glutathione, pH 7.5) was added to each well. Plates were centrifuged at 1000 rpm and incubated for 20 min at rt in dark. The plates were read on a PHERAstar® reader with excitation 340 nm and emission 460 nm. Data were analyzed in Genedata Screener®. IC50 values were determined by plotting % inhibition versus log compound concentration and using a one site dose response model.

Kinetic solubility = format: physicochemical; conditions: kinetic from dmso stock, n = 1 or average (n = 2-4)
Method: Kinetic solubility was measured as described in Comput Aided Mol Des 2015, 29, 795.

Rat Hepatocytes (rHep) = test: Metabolic stability in rat hepatocytes (rHep); format: in vitro ADME; conditions: n = 1 or geometric mean (n = 2-3)
Method: Metabolic stability in rat hepatocytes was measured as described in J Comput Aided Mol Des 2015, 29, 795.

hFAP (M39-A757) = biological target: T2, hFAP (M39-A757) (Homo sapiens, UniProt Q12884); test: biochemical
T2 sequence (Q12884 39-757): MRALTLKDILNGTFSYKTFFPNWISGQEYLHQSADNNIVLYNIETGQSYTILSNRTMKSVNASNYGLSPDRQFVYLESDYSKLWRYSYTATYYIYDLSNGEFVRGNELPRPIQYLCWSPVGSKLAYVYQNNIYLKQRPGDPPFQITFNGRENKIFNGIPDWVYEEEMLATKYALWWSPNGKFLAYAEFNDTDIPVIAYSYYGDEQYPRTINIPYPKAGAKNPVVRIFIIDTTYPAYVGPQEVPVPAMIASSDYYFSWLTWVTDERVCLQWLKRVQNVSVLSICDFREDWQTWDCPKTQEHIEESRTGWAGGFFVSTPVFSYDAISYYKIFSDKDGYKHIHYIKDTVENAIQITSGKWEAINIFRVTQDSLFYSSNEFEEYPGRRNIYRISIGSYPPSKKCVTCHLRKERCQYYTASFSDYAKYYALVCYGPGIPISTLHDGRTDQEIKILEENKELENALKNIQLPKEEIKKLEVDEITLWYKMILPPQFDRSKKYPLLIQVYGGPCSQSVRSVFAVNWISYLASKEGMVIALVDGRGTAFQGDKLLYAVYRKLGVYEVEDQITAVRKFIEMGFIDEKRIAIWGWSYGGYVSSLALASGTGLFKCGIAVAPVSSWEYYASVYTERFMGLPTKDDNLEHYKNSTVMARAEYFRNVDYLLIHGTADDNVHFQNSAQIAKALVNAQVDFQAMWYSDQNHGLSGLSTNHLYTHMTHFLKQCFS

hFAP = biological target: T3, hFAP (Homo sapiens, UniProt Q12884); test: biochemical
T3 sequence (Q12884 38-760): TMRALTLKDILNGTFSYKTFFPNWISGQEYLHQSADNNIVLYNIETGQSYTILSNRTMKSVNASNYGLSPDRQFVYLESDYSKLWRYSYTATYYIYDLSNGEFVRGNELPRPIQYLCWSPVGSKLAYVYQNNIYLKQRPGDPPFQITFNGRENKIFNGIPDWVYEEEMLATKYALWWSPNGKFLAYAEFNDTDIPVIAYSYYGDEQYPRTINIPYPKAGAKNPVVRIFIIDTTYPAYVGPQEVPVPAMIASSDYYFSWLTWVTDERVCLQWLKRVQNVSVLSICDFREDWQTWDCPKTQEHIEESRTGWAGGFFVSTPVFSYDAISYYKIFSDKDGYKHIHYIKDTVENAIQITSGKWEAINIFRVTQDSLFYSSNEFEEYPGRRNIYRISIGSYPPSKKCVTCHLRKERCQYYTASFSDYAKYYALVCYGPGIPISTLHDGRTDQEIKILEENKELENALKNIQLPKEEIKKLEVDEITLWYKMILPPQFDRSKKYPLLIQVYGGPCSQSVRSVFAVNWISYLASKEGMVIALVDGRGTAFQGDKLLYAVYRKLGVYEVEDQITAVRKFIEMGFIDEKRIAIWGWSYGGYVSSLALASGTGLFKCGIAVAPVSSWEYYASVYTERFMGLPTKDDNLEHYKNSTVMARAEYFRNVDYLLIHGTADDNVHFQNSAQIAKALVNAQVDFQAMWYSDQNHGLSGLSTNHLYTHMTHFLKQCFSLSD
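For Kd in this document: surface plasmon resonance direct binding to hFAP amine-coupled on a sensor chip, rising compound concentrations by single cycle kinetics, Kd from global fit of interaction models.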
Method: 384 low volume black plates (Greiner #784076) were used. 4 μL, 0.48 nM enzyme solution (100 mM Tris HCl, 100 mM NaCl, 0.05% Chaps, pH 7.4) was added to 40 nL compounds (in DMSO) at 10 CR, 3 fold dilution series from 50 μM FAC. Plates were incubated for 15 min at rt in dark. 4 μL, 40 μM substrate solution (100 mM Tris HCl, 100 mM NaCl, 0.05% Chaps, pH 7.4) was added to each well. Plates were centrifuged at 1000 rpm and incubated for 30 min at rt in dark. The plates were read on a PHERAstar® reader with excitation 340 nm and emission 460 nm. Data were analyzed in Genedata Screener®. IC50 values were determined by plotting % inhibition versus log compound concentration and using a one site dose response model.

Papp A→B ([1]; A to B, n = 1 or average (n = 2), read-out: Caco2 Bidirectional (ABBA) A to B Papp) [×10⁻⁶ cm/s] | Papp B→A ([1]; B to A, n = 1 or average (n = 2), read-out: Caco2 Bidirectional (ABBA) B to A Papp) [×10⁻⁶ cm/s] | efflux ratio ([1]; read-out: Caco2 Bidirectional (ABBA) Efflux Ratio) | microsomal CLint [2] [µL/min/mg] | IC50 [3] [nM] | solubility (Kinetic solubility) [µM] | rHeps CLint (Rat Hepatocytes (rHep)) [μL/min/1E6] | Kd (hFAP (M39-A757)) [nM] | IC50 (hFAP) [nM] | Compound
 |  |  | 63 | 540 | 14 (≈ 6.87 µg/mL) | 18 | 0.013 | 0.2 | COCCCOc1ccc(-c2ccc3nccc(C(=O)NCC(=O)N4CSC[C@H]4C#N)c3c2)cc1 [Example 72, (R)—N-(2-(4-Cyanothiazolidin-3-yl)-2-oxoethyl)-6-(4-(3-methoxy-propoxy)phenyl)quinoline-4-carboxamide]
 |  |  | 16 | 15 | > 1000 | 8.7 | 0.4 | 0.43 | N#C[C@@H]1CSCN1C(=O)CNC(=O)c1ccnc2ccc(C(F)F)cc12 [Example 71, (R)—N-(2-(4-Cyanothiazolidin-3-yl)-2-oxoethyl)-6-(difluoromethyl)-quinoline-4-carboxamide]
 |  |  | 140 | 580 | 900 (≈ 369 µg/mL) | 34 | 2 | 1.3 | CCOC1(c2ccc3nccc(C(=O)NCC(=O)N4CSC[C@H]4C#N)c3c2)CC1 [Example 76, (R)—N-(2-(4-Cyanothiazolidin-3-yl)-2-oxoethyl)-6-(1-ethoxycyclopropyl)quinoline-4-carboxamide]

More lines, now with the values behind:

Compound | Papp A→B ([1]; A to B, n = 1 or average (n = 2), read-out: Caco2 Bidirectional (ABBA) A to B Papp) [×10⁻⁶ cm/s] | Papp B→A ([1]; B to A, n = 1 or average (n = 2), read-out: Caco2 Bidirectional (ABBA) B to A Papp) [×10⁻⁶ cm/s] | efflux ratio ([1]; read-out: Caco2 Bidirectional (ABBA) Efflux Ratio) | microsomal CLint [2] [µL/min/mg] | IC50 [3] [nM] | solubility (Kinetic solubility) [µM] | rHeps CLint (Rat Hepatocytes (rHep)) [μL/min/1E6] | Kd (hFAP (M39-A757)) [nM] | IC50 (hFAP) [nM]
N#C[C@@H]1CSCN1C(=O)CNC(=O)c1ccnc2ccc(C3(C#N)CCOCC3)cc12 [Example 59, (R)-6-(4-Cyanotetrahydro-2H-pyran-4-yl)-N-(2-(4-cyanothiazolidin-3-yl)-2-oxoethyl)quinoline-4-carboxamide] | 0.24 | 21 | 90 | 30 | 430 | 480 (≈ 209 µg/mL) | 20 |  | 
N#C[C@@H]1CSCN1C(=O)CNC(=O)c1ccnc2ccc(-c3ccoc3)cc12 [Example 14, (R)—N-(2-(4-Cyanothiazolidin-3-yl)-2-oxoethyl)-6-(furan-3-yl)quinoline-4-carboxamide] |  |  |  | 25 | 8.4 | 420 (≈ 165 µg/mL) | 11 | 0.046 | 0.079
N#C[C@@H]1CSCN1C(=O)CNC(=O)c1ccnc2ccc(C3CCOC3)cc12 (mixture of isomers) [Example 67, N-(2-((R)-4-Cyanothiazolidin-3-yl)-2-oxoethyl)-6-((RS)-tetrahydrofuran-3-yl)quinoline-4-carboxamide] |  |  |  | 16 | 87 | 880 (≈ 349 µg/mL) | 11 | 0.11 | 0.3
N#C[C@@H]1CSCN1C(=O)CNC(=O)c1ccnc2ccc(CF)cc12 [Example 29, (R)—N-(2-(4-cyanothiazolidin-3-yl)-2-oxoethyl)-6-(fluoromethyl)-quinoline-4-carboxamide] |  |  |  | 9.8 | 32 | > 1000 | 12 | 1.4 | 0.52
Cc1cc(Cc2ccc3nccc(C(=O)NCC(=O)N4CSC[C@H]4C#N)c3c2)no1 [Example 42, (R)—N-(2-(4-Cyanothiazolidin-3-yl)-2-oxoethyl)-6-((5-methylisoxazol-3-yl)methyl)quinoline-4-carboxamide] |  |  |  | 12 | 180 | 190 (≈ 80.1 µg/mL) | 23 | 0.2 | 0.27
Cc1cc(Cc2ccc3nccc(C(=O)NCC(=O)N4CSC[C@H]4C#N)c3c2)n(C)n1 [Example 40, (R)—N-(2-(4-Cyanothiazolidin-3-yl)-2-oxoethyl)-6-((1,3-dimethyl-1H-pyrazol-5-yl)methyl)quinoline-4-carboxamide] |  |  |  | 29 | 600 | > 1000 | 21 | 0.13 | 0.25
